Publication PMC5502055, “Phase II study of lanreotide autogel in Japanese patients with unresectable or metastatic well-differentiated neuroendocrine tumors” (Investigational New Drugs, 2017)
Where two headings read alike, the source gives them in different places.

What was measured:
[1] = tested on: Japanese patients with grade (G) 1/G2 NET; assay: Quality of life, EORTC QLQ-C30 (ver. 3.0); type: in vivo, human; settings: EORTC QLQ-C30, individual terms
Text: The primary endpoint was the clinical benefit rate (CBR) at 24 weeks after the first injection, which served to indicate and confirm the anti-tumor effects of lanreotide. The CBR was defined as the percentage of patients in the analysis set who achieved a complete response or partial response (PR) as the best overall response, or those who maintained stable disease (SD) over 24 weeks after the first injection by central review. Secondary efficacy endpoints were progression-free survival (PFS), overall survival (OS), objective response rate (ORR), and the percent change from baseline in the sum of the diameters of target lesion from baseline. […] Regarding tumor lesion imaging ≥4 weeks before the baseline, the investigators evaluated computed tomography (CT) or magnetic resonance imaging (MRI) data based on the RECIST (ver. 1.1). To evaluate anti-tumor effects after baseline, CT or MRI data were evaluated centrally by an independent third party based on the RECIST (ver. 1.1). During the study period, images of each patient were determined using the same method (CT or MRI), according to the standardized procedure at each site. […]
In the primary analysis, the CBR point estimate at 24 weeks after the first injection and an exact F distribution-based 95% confidence interval (CI) were calculated. […] The ORRs at 24, 48, and 60 weeks after the first injection were also calculated. […]

[2] = Pharmacokinetics: serum lanreotide concentration (radioimmunoassay); type: in vivo, human
Protocol: Full analysis set (FAS) and CLARINET-like FAS which was satisfied eligibility criteria of the CLARINET study were used for efficacy analysis. Safety analysis set which included patients who had received the study drug at least once was used for safety analysis. Per protocol set (PPS) was used for pharmacokinetic analysis.
Regarding pharmacokinetics evaluations, serum lanreotide concentrations were determined on the day of first administration (before and 2 and 4 h after administration of the study drug) and at 4, 8, 12, 16, and 20 (before and 2 and 4 h after administration of the study drug), 24, 36, and 48 weeks after the start of administration (or at the time of discontinuation). Serum lanreotide concentrations were centrally determined using a validated radioimmunoassay (RIA; Kymos Pharma Services S.L., Barcelona, Spain).

[3] = tested on: serum CgA; assay: Serum chromogranin A (CgA) concentration; type: in vivo, human; settings: 15 of 17 patients with baseline CgA >100 ng/mL
Protocol: Serum CgA, serum anti-lanreotide antibody, and serum lanreotide testing methods are described in the Electronic Supplementary Material.
In the primary analysis, the CBR point estimate at 24 weeks after the first injection and an exact F distribution-based 95% confidence interval (CI) were calculated. The CBR was selected as the primary endpoint, because maintaining SD was deemed beneficial and clinically meaningful for NET patients. In the secondary analysis, Kaplan–Meier curves of PFS and OS were prepared, and median values and 95% CIs were calculated. The ORRs at 24, 48, and 60 weeks after the first injection were also calculated. Regarding percent changes from baseline in the sum of the diameters of target lesion, descriptive statistics were calculated for each evaluation time point, and waterfall plots of the best response and last evaluation time points were prepared. Regarding the serum CgA concentration and QOL evaluation, descriptive statistics of changes from baseline were calculated for each time point. For all endpoints, the starting point of evaluation was set as the baseline for the phase II study.
Serum chromogranin A concentrations were determined centrally every 12 weeks for the 48-weeks period following the start of administration, and every 24 weeks thereafter (SRL Medisearch Inc.,Tokyo,Japan, Kit Cisbio).

[4] = tested on: Japanese patients with grade (G) 1/G2 NET; assay: Post hoc analysis of tumor growth rate (TGR); type: in vivo, human; design: key to TGR (0-Last): % change in tumor volume per month; settings: for TGR (0-Last): mean ± SD
Protocol: The descriptive statistics of tumor growth rate (TGR) were calculated in a post hoc analysis of the FAS. The TGR estimates the change of the tumor volume during 1 month. This value incorporates the intervals between imaging tests, thus allowing a quantitative and dynamic evaluation of the tumor response. Scatter plots were prepared, and a subgroup analysis was conducted. To calculate TGR, results evaluated by the investigator were used before baseline, and results determined via central evaluation were used after baseline. There were not enough events for multivariate analysis, therefore univariate analysis based on the Cox proportional hazard model was implemented to assess prognostic factors.
The TGR per unit time was calculated in the post-hoc analysis. From past to 0 (baseline), the results of the investigator’s evaluation were used for tumor lesions, after baseline, the results of a central evaluation were used for the tumor lesions. The TGR (mean ± SD) before the first injection was 25.3 ± 35.7%, and the TGR from baseline to the last value was 5.4 ± 10.7% (Fig. 4).

[5] = tested on: non-functional enteropancreatic NET; settings: CLARINET study, cited from earlier work
Text: Tumors occurring in nerves or endocrine cells anywhere in the body can be classified as neuroendocrine neoplasm (NEN). NEN is classified into poorly-differentiated neuroendocrine carcinoma and well-differentiated neuroendocrine tumor (NET). NET is a rare disease and tends to proliferate slowly. According to an epidemiological survey conducted in Japan in 2010, the incidence of new pancreatic and gastrointestinal NET was 4.78 per 100,000 people (estimated number of patients treated: 11,467). The incidences of NET other than pancreatic and gastrointestinal NET remain unknown in Japan, wher ... || Furthermore, in the CLARINET study, a median PFS was not reached at 96 weeks (24 months), in contrast to the median PFS of 36.3 weeks (based on the RECIST ver. 1.1) in the present study. This difference is attributed to differences in baseline disease characteristics of the patient and tumor characteristics. The percentages of patients with PD at baseline and prior treatment for NET were 39.3% (11/28 patients) and 78.6% (22/28 patients), respectively, in the present, and only 4.0% (4/101 patients) and 15.8% (16/101 patients), respectively, in the CLARINET study. The current Japanese stud ...

CC(C)[C@@H]1NC(=O)[C@H](CCCCN)NC(=O)[C@@H](Cc2c[nH]c3ccccc23)NC(=O)[C@H](Cc2ccc(O)cc2)NC(=O)[C@@H](NC(=O)[C@H](N)Cc2ccc3ccccc3c2)CSSC[C@@H](C(=O)N[C@H](C(N)=O)[C@@H](C)O)NC1=O [lanreotide]
QOL transformed scores versus baseline [1]: did not differ significantly
number of doses to near-steady state ([2]; 120 mg every 4 weeks): 3 doses
Tmax ([2]; human, in vivo, injection at 20 weeks after the first injection, read-out: median time to reach the maximum serum concentration): 3.8 h
Tmax ([2]; human, in vivo, serum, PPS 28 patients, read-out: time of Cmax after the first injection (median)): 3.9 h
Cmax ([2]; human, in vivo, 120 mg every 4 weeks, PPS 28 patients, mean ± SD, read-out: Cmax at 20 weeks after the first injection): 24.2 ± 20.2 ng/mL
level at 672 h ([2]; human, serum, sc, 120 mg, PPS 28 patients, read-out: serum concentration at 4 weeks after the first injection, before injection (trough, mean ± SD)): 3.1 ± 1.4 ng/mL
level at 4032 h ([2]; human, serum, sc, 120 mg every 4 weeks, PPS 28 patients, mean ± SD, read-out: trough concentration at 24 weeks after the first injection): 6.1 ± 3.3 ng/mL
Cmax after the first injection (mean ± SD) ([2]; serum, 120 mg deep s.c., PPS 28 patients, RIA): 20.2 ± 18.2 ng/mL
patients with serum CgA decrease of ≥50% by last examination relative to baseline [3]: 88.2%
TGR from baseline to the last value (mean ± SD) ([4]; FAS n=28, post hoc, TGR before the first injection 25.3 ± 35.7%): 5.4 ± 10.7%
TGR (0-Last) ([4]; FAS subgroup Age (years) >65, N=12): 5.44 ± 10.34
TGR (0-Last) ([4]; FAS subgroup Age (years) ≤65, N=16): 5.41 ± 11.34
TGR (0-Last) ([4]; FAS subgroup Baseline TGR (%/month) <10, N=13): 3.41 ± 9.43
TGR (0-Last) ([4]; FAS subgroup Baseline TGR (%/month) ≥10, N=15): 7.17 ± 11.76
TGR (0-Last) ([4]; FAS subgroup Grade of tumor Grade 1, N=9): 1.65 ± 5.95
TGR (0-Last) ([4]; FAS subgroup Grade of tumor Grade 2, N=19): 7.21 ± 12.09
TGR (0-Last) ([4]; FAS subgroup Hepatic tumor load (%) >10 and ≤25, N=6): 8.10 ± 15.47
TGR (0-Last) ([4]; FAS subgroup Hepatic tumor load (%) >25 and ≤50, N=3): 9.49 ± 9.98
TGR (0-Last) ([4]; FAS subgroup Hepatic tumor load (%) ≥0 and ≤10, N=18): 4.09 ± 9.60
TGR (0-Last) ([4]; FAS subgroup Ki67 index (%) >2 and ≤5, N=8): 5.55 ± 8.50
TGR (0-Last) ([4]; FAS subgroup Ki67 index (%) >5 and <10, N=9): 4.63 ± 11.81
TGR (0-Last) ([4]; FAS subgroup Ki67 index (%) ≤ 2, N=8): 1.82 ± 6.34
TGR (0-Last) ([4]; FAS subgroup Sex Female, N=9): 2.71 ± 10.00
TGR (0-Last) ([4]; FAS subgroup Sex Male, N=19): 6.71 ± 11.07
TGR (0-Last) ([4]; FAS subgroup primary tumor site Hindgut, N=8): 16.35 ± 11.02
TGR (0-Last) ([4]; FAS subgroup primary tumor site Other/ Unknown, N=5): 4.23 ± 6.12
TGR (0-Last) ([4]; FAS subgroup primary tumor site Pancreas, N=12): 0.43 ± 7.83
TGR (0-Last) ([4]; FAS subgroup prior treatment for NET Absent, N=6): 0.69 ± 5.09
TGR (0-Last) ([4]; FAS subgroup prior treatment for NET Present, N=22): 6.72 ± 11.55
TGR (0-Last) ([4]; FAS subgroup progressive disease at baseline Absent, N=17): 1.99 ± 6.50
TGR (0-Last) ([4]; FAS subgroup progressive disease at baseline Present, N=11): 10.74 ± 13.84
patients with decrease in TGR at the last value ([4]; population with PD at baseline, 10 of 11 patients): 90.9%
median PFS ([5]; up to 96 weeks (24 months), placebo 18.0 months): not reached
hazard ratio for PFS vs placebo ([5]; 95% CI 0.30-0.73, P < 0.001): 0.47
